Data published in US8597646B2, “Methods and compositons featuring TGF-beta antagonists for the treatment of marfan syndrome and associated disorders” (The Johns Hopkins University, priority 2005, dated 2013).
Entries after “also recorded” stand apart in the source; their conditions may differ.

Tests used:
Format in all cases: in vivo, mouse
C1039G/+ mice [1] = assay: Aortic root growth by echocardiography in C1039G/+ mice, 4 months of treatment
Experimental: Markers of TGFβ antagonism have included reduced plasma levels of free TGFβ, reduced intracellular initiation of the TGFβ signaling cascade, and reduced tissue expression of TGFβ-responsive genes. […] Three independent measurements of the aortic root were made from the long axis echo view in systole at each of 3 time points (baseline, 2 and 4 months of treatment; FIG. 8A). All analyses were performed blinded to genotype and treatment arm. […] This represents the first therapeutic strategy for MFS that derives from interrogation of disease pathogenesis and the first possibility for primary prevention of disease manifestations.

C1039G/+ mice [2] = assay: Aortic wall histology (elastic matrix architecture) in treated C1039G/+ mice; conditions: 4 months of treatment
Fbn1C1039G/+ mice [3] = assay: Prenatal treatment with losartan and propranolol, aorta of Fbn1C1039G/+ mice; conditions: prenatal start
Description: Treatment of the mothers continued throughout lactation and was maintained in the pups after weaning. Mice were killed at 10 months of age. […] The average aortic wall thickness for untreated wild-type animals was smaller than that in placebo-treated Fbn1C1039G/+ mice (P<0.0001) but was indistinguishable from that in losartan-treated Fbn1C1039G/+ mice (P=0.24, FIG. 20E).

Fbn1C1039G/+ mice [4] = assay: Postnatal treatment with losartan and propranolol, aorta of Fbn1C1039G/+ mice
Description: However, before treatment, the aortic diameter in Fbn1C1039G/+ mice was always greater than in untreated wild-type mice (1.59±0.11 mm; P<0.002).
Three independent aortic root measurements were obtained for each mouse every 2 months during the 6 months of treatment. Mice were killed at 8 months of age. […] The aortic root growth rate over this period was less in the wild-type mice than in the placebo-treated Fbn1C1039G/+ mice (P<0.0001, FIG. 21I).

CC(C)NCC(O)COc1cccc2ccccc12 (stereo not drawn) [propranolol]
Aortic growth during the 4 months of treatment (C1039G/+ mice [1]; C1039G/+ mice from 7 weeks of age, losartan 50 mg/kg or propranolol 40 mg/kg, aortic root, echo, placebo 0.44±0.09): 0.22±0.06 mm | Improvement in any parameter (C1039G/+ mice [1]; propranolol dose with the same antihypertensive effect as losartan): little improvement | Elastic matrix architecture / histologic parameters of the aorta (C1039G/+ mice [2]): did not improve | Aortic dilatation (Fbn1C1039G/+ mice [3]; 10 months): marked aortic dilatation | Aortic wall architecture score (Fbn1C1039G/+ mice [3]; 10 months of treatment): not influenced | Average aortic wall thickness (Fbn1C1039G/+ mice [3]; 10 months of treatment): indistinguishable from that in the placebo group | Elastic fiber fragmentation / architecture (VVG staining) (Fbn1C1039G/+ mice [3]; drinking water, killed at 10 months): observed; also recorded: Marked elastic fiber disruption | Aortic wall / elastic fiber architecture (Fbn1C1039G/+ mice [4]; 6 months of treatment): no discernable effect | Aortic wall thickness (Fbn1C1039G/+ mice [4]; 6 months of treatment): no discernable effect | Aortic root growth rate (Fbn1C1039G/+ mice [4]; during 6 months of treatment): slower rate of aortic root growth than did placebo-treated animals; also recorded: less than that with placebo, yet remains greater than that seen in wild-type mice | TGF-β signaling in aortic media (nuclear pSmad2) (Fbn1C1039G/+ mice [4]; from 7 weeks of age, 6 months): Marked increase in nuclear staining for pSmad2 | Elastic fiber fragmentation (VVG staining) (Fbn1C1039G/+ mice [4]; from 7 weeks of age, 6 months, drinking water): diffuse fragmentation of elastic fibers
